Like-named read-outs stand apart in the source and are kept apart here.
Key:
[1] = system: zebrafish embryos (wild-type strain OBI/WIK); assay: ISV inhibition (angiogenesis) by video subtraction in wildtype zebrafish embryos; type: in vivo, zebrafish (D. rerio)
Experimental: A wild-type adult zebrafish strain (D. rerio, strain OBI/WIK, generation F3), originating from an in-house cross of zebrafish strains UFZ-OBI and WIK, was used for all experiments. The Tg(kdr:EGFP) strain was kindly provided by the University of Jena. Fish were fed twice daily with dry food (SDS-400, Special Diets Services, Essex England) and once daily with Artemia sp. […] Spawning trays were inserted 4–6 h before the end of the light cycle. The following day, spawning was initiated by the onset of light and eggs were collected within 1 h. Exposure in all experiment was ceased at 96 hpf.
(§1) Exposure was conducted in rectangular 96-well microplates (Clear Polystyrene, flat bottom, Uniplate, Whatman, GE Healthcare) covered by a lid with a test volume of 400 µL of exposure media. For each replicate one embryo per well and 16 wells per concentration were assessed. Experiments were performed with at least two replicates on independent days and breeding.
To determine the number of ISVs in the trunk region, high-resolution images of 96 hpf-old zebrafish embryos were recorded using a Leica DM6B-Z microscope (Leica, Wetzlar, Germany) attached to the VAST imaging system, and a camera (Leica DFC9000 sCMOS, objective: HC APO L U-V-I 20x/0.50 WATER UV). A series of 20 images with a frame rate of 20 images per second and a 2 × 2 pixel binning was recorded in autofocus mode for each embryo.
A series of MATLAB scripts (Supplement File ‘Workflow 3.m’ and ‘Workflow 4.m’) was used to convert the image series into a video and to visualize the blood vessel by applying a video subtraction approach (Figure SI1). Briefly, each video frame was subtracted from the average image of the whole image sequence and converted to a binary image by applying a Gaussian blur (σ = 5) and a threshold of 0.025 to obtain optimal contrast in binary images. Subsequently, the sum of all binary images was calculated. Due to movement of the blood cells the subtraction approach removed all parts from the image which were not moving resulting in an image of the blood vessels. This binary image of the blood vessel network in the zebrafish embryo tail was then processed with the FishInspector annotation software (version 1.70). […] The number of ISVs was obtained by application of a KNIME workflow to FishInspector annotation files. Subsequently concentration–response analysis was conducted using a KNIME workflow. The coefficient of variation (CV) of controls was calculated for both the subtraction and the fluorescence-based method by dividing the standard deviation of individual embryos with the control mean: CVControl=SD/Mean.
The assessment of lethality and morphological features was based on the percentage of embryos affected. Therefore, morphological endpoints were dichotomized, i.e. feature metrics were converted to the percentage of embryos deviating from controls. An embryo was considered to deviate when it was outside 1.5-fold of the standard deviation range of the mean of the control group. The control mean was determined by pooling control embryos across all experiments (n = 160) (available at git.ufz.de). For heart rate and angiogenesis (number of ISVs) the analysis was based on normalized values, i.e. for each experiment the values of the treatment were divided by the control value. The experiments were designed to calculate effect concentrations based on modelled curve fits. Different concentrations were used in at least two independent replicates, with means of each replicate based on the exposure of 16 different embryos per concentrations. Effect concentration were only modeled when three conditions were met. […] (2) The Akaike information criterion (AIC) for the log-logistic model was lower than the AIC for a linear model with slope 0 (lower p values for the letter would indicate that there is no trend in the data).

[2] = Lethality of zebrafish embryos at 96 hpf; type: in vivo, zebrafish (D. rerio); conditions: OBI/WIK wild-type, zebrafish, in vivo, other: immersion of embryos in exposure media, ± 95% confidence intervals
Experimental: as §1, with “Fertilized and normally developed embryos were selected according to Kimmel et al. ([1995]) with a dissection microscope (Olympus SZx7-ILLT) at 1 hpf. Depending on experiment, exposure was started within 2–3 h post-fertilization (16–128 cell stages) or at 24 hpf. Exposure” for “Exposure”
Concentration–response curves were fitted for lethality, heart rate, morphological features as previously described (Teixidó et al. [2019], [2022]). The assessment of lethality and morphological features was based on the percentage of embryos affected. Therefore, morphological endpoints were dichotomized, i.e. feature metrics were converted to the percentage of embryos deviating from controls. An embryo was considered to deviate when it was outside 1.5-fold of the standard deviation range of the mean of the control group. The control mean was determined by pooling control embryos across all experiments (n = 160) (available at git.ufz.de). For heart rate and angiogenesis (number of ISVs) the analysis was based on normalized values, i.e. for each experiment the values of the treatment were divided by the control value. The experiments were designed to calculate effect concentrations based on modelled curve fits. Different concentrations were used in at least two independent replicates, with means of each replicate based on the exposure of 16 different embryos per concentrations. Effect concentration were only modeled when three conditions were met. (1) The Tukey trend test based on the R package "tukeytrend" (Schaarschmidt et al. [2022]) was deriving a maximum p-value of 0.05. (2) The Akaike information criterion (AIC) for the log-logistic model was lower than the AIC for a linear model with slope 0 (lower p values for the letter would indicate that there is no trend in the data). (3) We calculated effect concentrations only if at least 30% of embryos for that endpoint were affected in at least one exposure concentration of (for normalized data) a reduction or increase by 30% was observed.

[3] = Danio rerio, 24–96 hpf exposure, ± 95% confidence intervals, read-out: IC50 of ISV inhibition

Row | Structure (SMILES) | IC50 ([1]; Danio rerio, 3–96 hpf exposure, ± 95% confidence intervals, read-out: IC50 of ISV inhibition) [nM] | IC50 [1, 3] [nM] | LC50 ([2]; 3–96 hpf exposure) [nM] | LC50 ([2]; 24–96 hpf exposure) [nM] | IC50 ([1]; 3–96 hpf exposure, ± 95% confidence intervals, read-out: IC50 of ISV inhibition) [nM] | IC50 ([1]; 24–96 hpf exposure, ± 95% confidence intervals, read-out: IC50 of ISV inhibition) [nM] | IC50 ([1]; exposure window not stated at this place, read-out: IC50 / loss of ISV number, current study as restated in discussion) [nM]
1 | CNC(=O)c1cc(Oc2ccc(NC(=O)Nc3ccc(Cl)c(C(F)(F)F)c3)cc2)ccn1 [Sorafenib] | 1370 ± 100 | 1360 ± 240 | 2800 ± 310 |  |  |  | 
2 | Cc1cc(C)c(/C=C2\C(=O)Nc3ccccc32)[nH]1 [SU5416] |  | 2100 ± 350 | 890 ± 420 | 1930 ± 830 |  |  | 
3 | CN(C)c1ccc(C=C2C(=O)Nc3ccccc32)cc1 [SU4312] |  |  |  |  | 2300 ± 420 | 2590 ± 600 | 90
